BindingDB's records for doi:10.1080/14756360400015231 (Quaid-I-Azam University, 2005)

Each molecule was assayed against Carboxylic ester hydrolase (Equus caballus, UniProt Q9N1N9) (assay: Enzyme Inhibition Assay). Details: pH 8; 25 °C.
Carboxylic ester hydrolase, sequence (Q9N1N9 whole entry): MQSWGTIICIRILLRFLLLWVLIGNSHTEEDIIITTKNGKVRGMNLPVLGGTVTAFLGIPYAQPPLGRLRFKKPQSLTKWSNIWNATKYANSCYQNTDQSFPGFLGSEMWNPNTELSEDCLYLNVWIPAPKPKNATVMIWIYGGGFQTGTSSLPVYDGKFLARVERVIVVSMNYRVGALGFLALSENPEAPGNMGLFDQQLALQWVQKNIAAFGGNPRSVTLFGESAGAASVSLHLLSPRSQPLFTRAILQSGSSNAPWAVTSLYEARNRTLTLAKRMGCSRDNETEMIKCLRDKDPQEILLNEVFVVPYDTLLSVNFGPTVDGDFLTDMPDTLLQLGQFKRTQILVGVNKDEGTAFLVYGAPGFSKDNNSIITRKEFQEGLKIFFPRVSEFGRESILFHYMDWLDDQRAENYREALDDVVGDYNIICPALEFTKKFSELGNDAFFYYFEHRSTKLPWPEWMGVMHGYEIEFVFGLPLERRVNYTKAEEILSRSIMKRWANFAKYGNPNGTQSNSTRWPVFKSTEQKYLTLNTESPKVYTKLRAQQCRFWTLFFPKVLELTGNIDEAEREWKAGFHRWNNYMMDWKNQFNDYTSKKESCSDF
Description: In vitro cholinesterase inhibition assay using electric-eel acetylcholinesterase, horse-serum butyrylcholinesterse. The IC50 values were calculated using the […] enzyme kinetics program (Perrella Scientific Inc., Amherst, USA).
For `O=C(/C=C/c1ccc(O)cc1)c1ccccc1` [Chalcone 2], the IC50 was 40 µM.
`O=C(/C=C/c1ccccc1O)c1ccccc1` [Chalcone, 1] was tested, and the IC50 was 16 µM.
Work on `O=C(/C=C/c1cccc(O)c1)c1ccccc1` [Chalcone, 2] yielded an IC50 of 46.2 µM.
In the case of `COc1ccc(/C=C/C(=O)c2ccccc2)cc1` [Chalcone, 4], the IC50 is reported as 39 µM.
Work on `COc1ccc(/C=C/C(=O)c2ccccc2)cc1OC` [Chalcone, 5] yielded an IC50 of 23.1 µM.
In the case of `O=C(/C=C/c1ccccc1)c1ccccc1` [Chalcone, 13], the IC50 is reported as 109 µM.
